In patent US9770026B2, “Substituted pyrimidine compound and uses thereof” (Shenyang Sinochem Agrochemicals R&D Co., Ltd., priority 2012, dated 2017):

What was measured:
rice blast = experiment: microbe, parasite or virus in culture; type: cell-based; settings: Pyricularia oryzae; for inhibition at 8.3 ppm: read-out: inhibition rate against rice blast, 8.3 ppm, in vitro; for inhibition at 25 ppm: read-out: inhibition rate against rice blast, 25 ppm, in vitro
armyworm = experiment: bioactivity test against armyworm, airbrush spray; type: in vivo; settings: 72 h; for pest or weed control at 10 µg/mL: 10 mg/L; for pest or weed control at 10 µg/mL / pest or weed control at 100 µg/mL / pest or weed control at 600 µg/mL: read-out: Insecticidal activity against armyworm (%); for pest or weed control at 100 µg/mL: 100 mg/L; for pest or weed control at 600 µg/mL: 600 mg/L
[1] = concentration of 400 and 100 ppm; cited from earlier work
[2] = concentration of 50 ppm; cited from earlier work
corn rust = experiment: protectant activity in vivo against corn rust; settings: Zea mays, 168 h; for pest or weed control at 25 µg/mL: read-out: control effect against corn rust (%), 25 mg/L; for pest or weed control at 100 µg/mL: read-out: control effect against corn rust (%), 100 mg/L; for pest or weed control at 400 µg/mL: read-out: control effect against corn rust (%), 400 mg/L; for pest or weed control at 100 ppm: read-out: protectant activity against corn rust in vivo, 100 ppm; for pest or weed control at 400 ppm: read-out: protectant activity against corn rust in vivo, 400 ppm
[3] = tested on: Green peach aphids (Myzus Persicae Sulzer); experiment: bioactivity test against green peach aphid, airbrush foliar spray; type: in vivo; settings: Myzus persicae, foliar, 48 h; for pest or weed control at 2.5 µg/mL: 2.5 mg/L; for pest or weed control at 5 µg/mL: 5 mg/L; for pest or weed control at 10 µg/mL: 10 mg/L; for pest or weed control at 100 µg/mL: 100 mg/L; for pest or weed control at 600 µg/mL: 600 mg/L; for pest or weed control at 10 ppm / pest or weed control at 100 ppm / pest or weed control at 600 ppm: death rate after 48 hrs
Procedure, shortened: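 Aphids (15-30 per cabbage leaf disc) on moist filter paper were airbrush-sprayed at 10 psi, 0.5 mL, with compound from acetone:methanol (1:1) diluted in water with 0.1% tween 80. Held at 25±1 C, 60±5% RH; survivors counted after 48 hrs to give death rates.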

wheat powdery mildew = experiment: protectant activity in vivo against wheat powdery mildew; settings: Triticum aestivum, 168 h; for pest or weed control at 100 µg/mL: read-out: control effect against wheat powdery mildew (%), 100 mg/L; for pest or weed control at 100 µg/mL / pest or weed control at 400 µg/mL / pest or weed control at 6.25 µg/mL / pest or weed control at 25 µg/mL: protectant activity; for pest or weed control at 400 µg/mL: read-out: control effect against wheat powdery mildew (%), 400 mg/L; for pest or weed control at 100 ppm: read-out: protectant activity against wheat powdery mildew in vivo, 100 ppm; for pest or weed control at 400 ppm: read-out: protectant activity against wheat powdery mildew in vivo, 400 ppm; for pest or weed control at 6.25 µg/mL: read-out: control effect against wheat powdery mildew (%), 6.25 mg/L; for pest or weed control at 25 µg/mL: read-out: control effect against wheat powdery mildew (%), 25 mg/L
carmine spider mite = experiment: bioactivity test against carmine spider mite, airbrush spray; type: in vivo; settings: Tetranychus cinnabarinus, 72 h; for pest or weed control at 100 µg/mL: 100 mg/L; for pest or weed control at 600 µg/mL: 600 mg/L; for pest or weed control at 100 ppm / pest or weed control at 600 ppm: mortality after 72 hrs
Procedure, shortened: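 Broadbean seedlings infested with adult mites were sprayed with compound (acetone/methanol stock diluted in 0.1% Tween 80 water) by airbrush at 0.7 kg/cm^2, 0.5 ml. Three replicates were run. Mortality was scored after 72 hrs.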

cucumber downy mildew = experiment: protectant activity in vivo against cucumber downy mildew; settings: Cucumis sativus, 168 h; for pest or weed control at 6.25 µg/mL: read-out: control effect against cucumber downy mildew (%), 6.25 mg/L; for pest or weed control at 12.5 µg/mL: read-out: control effect against cucumber downy mildew (%), 12.5 mg/L; for pest or weed control at 25 µg/mL: read-out: control effect against cucumber downy mildew (%), 25 mg/L; for pest or weed control at 50 µg/mL: read-out: control effect against cucumber downy mildew (%), 50 mg/L; for pest or weed control at 100 µg/mL: read-out: control effect against cucumber downy mildew (%), 100 mg/L; for pest or weed control at 400 µg/mL: read-out: control effect against cucumber downy mildew (%), 400 mg/L; for pest or weed control at 6.25 ppm: read-out: protectant activity against cucumber downy mildew in vivo, 6.25 ppm; for pest or weed control at 12.5 ppm: read-out: protectant activity against cucumber downy mildew in vivo, 12.5 ppm; for pest or weed control at 25 ppm: read-out: protectant activity against cucumber downy mildew in vivo, 25 ppm; for pest or weed control at 50 ppm: read-out: protectant activity against cucumber downy mildew in vivo, 50 ppm; for pest or weed control at 100 ppm: read-out: protectant activity against cucumber downy mildew in vivo, 100 ppm
Diamond back moth = experiment: insecticidal activity against diamond back moth, airbrush spray; type: in vivo; settings: 72 h; for pest or weed control at 100 ppm / pest or weed control at 600 ppm: mortality after 72 hrs, read-out: control (test results against diamond back moth)
Procedure, shortened: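 Airbrush leaf-disc spray test: both faces of 2 cm cabbage discs received 0.5 ml of test solution at 0.7 kg/cm^2. Solutions were made in acetone:methanol (1:1) and brought to concentration with 0.1% Tween 80 in water. Ten second-instar larvae per disc, triplicates, were held at 25° C and 60˜70% R.H., with mortality recorded at 72 hrs.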

cucumber gray mold = experiment: fungicidal activity in vitro (inhibition rate) against cucumber gray mold; type: cell-based; settings: 25 ppm, in vitro; read-out: inhibition rate against cucumber gray mold
[4] = contrastive test, read-out: Insecticidal activity against peach aphid (%)
[5] = contrastive test, read-out: Insecticidal activity against carmine spider mite (% )

## Clc1ccc(Oc2ccc(CCNc3ncnc4ccccc34)cn2)cc1 [CK18, reference compound]
Rice blast
  inhibition at 8.3 ppm: 0%
armyworm
  pest or weed control at 10 µg/mL: 14%
  pest or weed control at 100 µg/mL: 43%
  pest or weed control at 600 µg/mL: 100%
[1]
  fungicidal activity: good fungicidal activity
[2]
  insectcidal activity: good insectcidal activity
Corn rust; protectant activity
  pest or weed control at 25 µg/mL: 0%
  pest or weed control at 100 µg/mL: 30%
  pest or weed control at 400 µg/mL: 80%
[3]; [4]
  pest or weed control at 2.5 µg/mL: 0%
  pest or weed control at 5 µg/mL: 7%
  pest or weed control at 10 µg/mL: 51%
  pest or weed control at 100 µg/mL: 71%
  pest or weed control at 600 µg/mL: 100%

## FC(F)(F)c1ccc(Oc2ccc(CCNc3ncnc4ccccc34)cn2)cc1 [CK19, reference compound]
Rice blast
  inhibition at 8.3 ppm: 0%
armyworm
  pest or weed control at 10 µg/mL: 7%
  pest or weed control at 100 µg/mL: 25%
  pest or weed control at 600 µg/mL: 86%
[1]
  fungicidal activity: good fungicidal activity
Wheat powdery mildew
  pest or weed control at 100 µg/mL: 0%
  pest or weed control at 400 µg/mL: 50%
[2]
  insectcidal activity: good insectcidal activity
Corn rust; protectant activity
  pest or weed control at 100 µg/mL: 0%
  pest or weed control at 400 µg/mL: 70%
[3]; [4]
  pest or weed control at 10 µg/mL: 33%
  pest or weed control at 100 µg/mL: 86%
  pest or weed control at 600 µg/mL: 100%

## Cc1ncnc(NCCc2ccc(Oc3ccc(Cl)cc3)nc2)c1Cl [III-7]
Rice blast; read-out: inhibition rate against rice blast, 0.1 ppm, in vitro
  inhibition at 0.1 ppm: 100%
Rice blast; read-out: inhibition rate against rice blast, 0.3 ppm, in vitro
  inhibition at 0.3 ppm: 100%
Rice blast; read-out: inhibition rate against rice blast, 0.9 ppm, in vitro
  inhibition at 0.9 ppm: 100%
Rice blast; read-out: inhibition rate against rice blast, 2.8 ppm, in vitro
  inhibition at 2.8 ppm: 100%
Rice blast
  inhibition at 8.3 ppm: 100%
  inhibition at 25 ppm: 100%
armyworm; mortality after 72 h
  pest or weed control at 600 ppm: 100%
Carmine spider mite; [5]
  pest or weed control at 100 µg/mL: 100%
  pest or weed control at 600 µg/mL: 100%
Carmine spider mite
  pest or weed control at 100 ppm: 100%
  pest or weed control at 600 ppm: 100%
Cucumber downy mildew; read-out: control effect against cucumber downy mildew (%), 3.125 mg/L, protectant activity
  pest or weed control at 3.125 µg/mL: 100%
Cucumber downy mildew; protectant activity
  pest or weed control at 6.25 µg/mL: 100%
  pest or weed control at 12.5 µg/mL: 100%
  pest or weed control at 25 µg/mL: 100%
  pest or weed control at 50 µg/mL: 100%
  pest or weed control at 100 µg/mL: 100%
  pest or weed control at 400 µg/mL: 100%
Cucumber downy mildew
  pest or weed control at 6.25 ppm: 100%
  pest or weed control at 12.5 ppm: 100%
  pest or weed control at 25 ppm: 100%
  pest or weed control at 50 ppm: 100%
  pest or weed control at 100 ppm: 100%
Cucumber downy mildew; read-out: protectant activity against cucumber downy mildew in vivo, 400 ppm
  pest or weed control at 400 ppm: 100%
Wheat powdery mildew
  pest or weed control at 100 ppm: 80 to 99%
  pest or weed control at 400 ppm: 100%
Diamond back moth
  pest or weed control at 100 ppm: 80 to 99%
  pest or weed control at 600 ppm: 100%
Cucumber gray mold
  inhibition at 25 ppm: 80 to 99%
Corn rust; protectant activity
  pest or weed control at 25 µg/mL: 100%
  pest or weed control at 100 µg/mL: 100%
  pest or weed control at 400 µg/mL: 100%
Corn rust; read-out: protectant activity against corn rust in vivo, 25 ppm
  pest or weed control at 25 ppm: 100%
Corn rust
  pest or weed control at 100 ppm: 100%
  pest or weed control at 400 ppm: 100%
[3]; [4]
  pest or weed control at 5 µg/mL: 88%
  pest or weed control at 10 µg/mL: 90%
  pest or weed control at 100 µg/mL: 100%
  pest or weed control at 600 µg/mL: 100%
[3]
  pest or weed control at 10 ppm: 80 to 99%
  pest or weed control at 100 ppm: 100%
  pest or weed control at 600 ppm: 100%

## CCc1ncnc(NCCc2ccc(Oc3ccc(C(F)(F)F)cc3)nc2)c1Cl [III-202]
Rice blast
  inhibition at 25 ppm: 80 to 99%
armyworm
  pest or weed control at 10 µg/mL: 65%
  pest or weed control at 100 µg/mL: 100%
  pest or weed control at 600 µg/mL: 100%
armyworm; 100 ppm, mortality after 72 h
  pest or weed control at 100 ppm: 100%
armyworm; mortality after 72 h
  pest or weed control at 600 ppm: 100%
Carmine spider mite
  pest or weed control at 100 ppm: 100%
  pest or weed control at 600 ppm: 100%
Cucumber downy mildew; protectant activity
  pest or weed control at 6.25 µg/mL: 100%
  pest or weed control at 12.5 µg/mL: 100%
  pest or weed control at 25 µg/mL: 100%
  pest or weed control at 50 µg/mL: 100%
  pest or weed control at 100 µg/mL: 100%
  pest or weed control at 400 µg/mL: 100%
Cucumber downy mildew
  pest or weed control at 6.25 ppm: 100%
  pest or weed control at 12.5 ppm: 100%
  pest or weed control at 25 ppm: 100%
  pest or weed control at 50 ppm: 100%
  pest or weed control at 100 ppm: 100%
Wheat powdery mildew
  pest or weed control at 6.25 µg/mL: 95%
  pest or weed control at 25 µg/mL: 100%
  pest or weed control at 100 µg/mL: 100%
  pest or weed control at 400 µg/mL: 100%
  pest or weed control at 100 ppm: 100%
  pest or weed control at 400 ppm: 100%
Wheat powdery mildew; read-out: protectant activity against wheat powdery mildew in vivo, 6.25 ppm
  pest or weed control at 6.25 ppm: 80 to 99%
Wheat powdery mildew; read-out: protectant activity against wheat powdery mildew in vivo, 25 ppm
  pest or weed control at 25 ppm: 100%
Diamond back moth
  pest or weed control at 100 ppm: 80 to 99%
  pest or weed control at 600 ppm: 100%
Cucumber gray mold
  inhibition at 25 ppm: 80 to 99%
Corn rust
  pest or weed control at 100 ppm: 100%
  pest or weed control at 400 ppm: 100%
[3]; 1.25 mg/L, contrastive test, read-out: Insecticidal activity against peach aphid (%)
  pest or weed control at 1.25 µg/mL: 94%
[3]; [4]
  pest or weed control at 2.5 µg/mL: 100%
  pest or weed control at 5 µg/mL: 100%
  pest or weed control at 10 µg/mL: 100%
  pest or weed control at 100 µg/mL: 100%
  pest or weed control at 600 µg/mL: 100%
[3]
  pest or weed control at 10 ppm: 100%
  pest or weed control at 100 ppm: 100%
  pest or weed control at 600 ppm: 100%

## CCC(Nc1ncnc(C)c1Cl)c1ccc(OC(F)F)cc1 (centres unmarked) [diflumetorim, reference compound]
Rice blast
  inhibition at 8.3 ppm: 0%
armyworm
  pest or weed control at 600 µg/mL: 0%
Carmine spider mite; 10 mg/L, contrastive test, read-out: Insecticidal activity against carmine spider mite (% )
  pest or weed control at 10 µg/mL: 73%
Carmine spider mite; [5]
  pest or weed control at 100 µg/mL: 100%
  pest or weed control at 600 µg/mL: 100%
Cucumber downy mildew; protectant activity
  pest or weed control at 6.25 µg/mL: 0%
  pest or weed control at 12.5 µg/mL: 15%
  pest or weed control at 25 µg/mL: 70%
  pest or weed control at 50 µg/mL: 100%
  pest or weed control at 100 µg/mL: 100%
  pest or weed control at 400 µg/mL: 100%
Wheat powdery mildew
  pest or weed control at 6.25 µg/mL: 90%
  pest or weed control at 25 µg/mL: 95%
  pest or weed control at 100 µg/mL: 95%
  pest or weed control at 400 µg/mL: 100%
Diamond back moth; 600 mg/L
  pest or weed control at 600 µg/mL: 0%
Cucumber gray mold
  inhibition at 25 ppm: 0%
Corn rust; read-out: control effect against corn rust (%), 6.25 mg/L, protectant activity
  pest or weed control at 6.25 µg/mL: 0%
Corn rust; protectant activity
  pest or weed control at 25 µg/mL: 10%
  pest or weed control at 100 µg/mL: 80%
  pest or weed control at 400 µg/mL: 100%
[3]; [4]
  pest or weed control at 10 µg/mL: 0%
  pest or weed control at 100 µg/mL: 35%
  pest or weed control at 600 µg/mL: 100%
